The values that follow are results of earlier work, collected in patent US4410516A, “1-N(αHydroxy-ω-aminoalkanoyl) derivatives of 5,3',4'-trideoxy- or 5,3', 4'-trideoxy-6'-N- methyl- or 5, 3', 4',6"-tetradeoxykannamyci B and production thereof” (Zaidan Hojin Biseibutsu Kagaku Kenkyu Kai, priority 1981, dated 1983).

Entries after “also recorded” stand apart in the source; their conditions may differ.

In one data set the test system is bacteria. Particulars: in words, earlier work / other filings; cited from earlier work.
The test system of the next data set is animals, including men. To be noted: in words, other filings; cited from earlier work.
For data set [1] the following is noted: in words, other filings; cited from earlier work.

For `C[C@@H]1C[C@H](N)[C@@H](O)[C@@H](O[C@@H]2[C@@H](O)[C@H](O[C@H]3O[C@H](CN)CC[C@H]3O)[C@@H](N)C[C@H]2NC(=O)[C@@H](O)CCN)O1` [3',4',4",6"-tetradeoxyamikacin], the antibacterial activity entry in the data set on bacteria is given as “useful antibacterial activity as high as that of amikacin”. Further, the acute toxicity entry in the data set with animals, including men is listed as “low acute toxicity”. In data set [1], the oto-toxicity entry is “low oto-toxicity”.
With `C[C@H]1O[C@H](O[C@@H]2[C@@H](O)[C@H](O[C@H]3O[C@H](CN)CC[C@H]3O)[C@@H](N)C[C@H]2NC(=O)[C@@H](O)CCN)[C@H](O)[C@@H](N)[C@@H]1O` [3',4',6"-trideoxyamikacin], the antibacterial activity entry with bacteria is listed as “useful antibacterial activity as high as that of amikacin”. Also, the acute toxicity result in the data set on animals, including men is reported as “low acute toxicity”. For the same compound, the oto-toxicity result in data set [1] is recorded as “low oto-toxicity”.
Regarding `NCC[C@H](O)C(=O)N[C@@H]1C[C@H](N)[C@@H](O[C@H]2O[C@H](CN)CC[C@H]2O)[C@H](O)[C@H]1O[C@H]1O[C@H](CO)[C@@H](O)[C@H](N)[C@H]1O` [3',4'-dideoxyamikacin], the antibacterial activity entry with bacteria is “useful antibacterial activity as high as that of amikacin”. Besides, the acute toxicity result in the data set with animals, including men was “low acute toxicity”. In data set [1], the oto-toxicity entry was “low oto-toxicity”.
For `C[C@H]1O[C@H](O[C@@H]2[C@@H](O)[C@H](O[C@H]3O[C@H](CN)[C@@H](O)C[C@H]3O)[C@@H](N)C[C@H]2NC(=O)[C@@H](O)CCN)[C@H](O)[C@@H](N)[C@@H]1O` [3',6"-dideoxyamikacin], the antibacterial activity result in the data set on bacteria was “useful antibacterial activity as high as that of amikacin”. Further, in the data set on animals, including men, the acute toxicity result was “low acute toxicity”. Further, in data set [1], the oto-toxicity result is given as “low oto-toxicity”.
As to `NCC[C@H](O)C(=O)N[C@@H]1C[C@H](N)[C@@H](O[C@H]2O[C@H](CN)[C@@H](O)C[C@H]2O)[C@H](O)[C@H]1O[C@H]1O[C@H](CO)[C@@H](O)[C@H](N)[C@H]1O` [3'-deoxyamikacin], the antibacterial activity result in the data set on bacteria is given as “useful antibacterial activity as high as that of amikacin”. The acute toxicity entry with animals, including men is given as “low acute toxicity”. Also, in data set [1], the oto-toxicity result was “low oto-toxicity”.
Regarding `C[C@@H]1C[C@H](N)[C@@H](O)[C@@H](O[C@@H]2[C@@H](O)[C@H](O[C@H]3O[C@H](CN)[C@@H](O)[C@H](O)[C@H]3O)[C@@H](N)C[C@H]2NC(=O)[C@@H](O)CCN)O1` [4",6"-dideoxyamikacin], the antibacterial activity entry in the data set on bacteria is given as “useful antibacterial activity as high as that of amikacin”. In addition, the acute toxicity entry in the data set with animals, including men is “low acute toxicity”. For the same compound, in data set [1], the oto-toxicity result is on record as “low oto-toxicity”.
In the case of `NC[C@@H]1CC[C@@H](N)[C@@H](O[C@H]2C[C@@H](O[C@H]3O[C@H](CO)[C@@H](O)[C@H](N)[C@H]3O)[C@H](N)C[C@@H]2N)O1` [5,3',4'-trideoxykanamycin B], the antibacterial activity result with bacteria is listed as “less active than dibekacin; also recorded: exhibits no useful anti-bacterial activity”.
Take `C[C@H]1O[C@H](O[C@@H]2C[C@H](O[C@H]3O[C@H](CN)[C@@H](O)C[C@H]3O)[C@@H](N)C[C@H]2NC(=O)[C@@H](O)CCN)[C@H](O)[C@@H](N)[C@@H]1O` [5,3',6"-trideoxyamikacin]: the antibacterial activity result in the data set with bacteria is listed as “useful antibacterial activity as high as that of amikacin”. Moreover, the acute toxicity result with animals, including men was “low acute toxicity”. Also, in data set [1], the oto-toxicity entry is “low oto-toxicity”.
Regarding `NCC[C@H](O)C(=O)N[C@@H]1C[C@H](N)[C@@H](O[C@H]2O[C@H](CN)[C@@H](O)C[C@H]2O)C[C@H]1O[C@H]1O[C@H](CO)[C@@H](O)[C@H](N)[C@H]1O` [5,3'-dideoxyamikacin], the antibacterial activity entry in the data set on bacteria is “useful antibacterial activity as high as that of amikacin”. Also, the acute toxicity entry with animals, including men is listed as “low acute toxicity”. For the same compound, the oto-toxicity result in data set [1] is “low oto-toxicity”.
Regarding `C[C@H]1O[C@H](O[C@@H]2[C@@H](O)[C@H](O[C@H]3O[C@H](CN)[C@@H](O)[C@H](O)[C@H]3O)[C@@H](N)C[C@H]2NC(=O)[C@@H](O)CCN)[C@H](O)[C@@H](N)[C@@H]1O` [6"-deoxyamikacin], the antibacterial activity result in the data set with bacteria is “useful antibacterial activity as high as that of amikacin”. Besides, the acute toxicity entry in the data set with animals, including men is on record as “low acute toxicity”. Moreover, in data set [1], the oto-toxicity result is “low oto-toxicity”.
As for `NC[C@@H]1CC[C@@H](N)[C@@H](O[C@H]2[C@H](O)[C@@H](O[C@H]3O[C@H](CO)[C@@H](O)[C@H](N)[C@H]3O)[C@H](N)C[C@@H]2N)O1` [Dibekacin, 3',4'-dideoxykanamycin B], in the data set with bacteria, the antibacterial activity result is “active against the kanamycin-sensitive bacteria and also against various kanamycin-resistant bacteria”.
